Source: paper PMC5912973 (ChemMedChem, 2018)
Where two headings read alike, the source gives them in different places.

How the values were obtained:
HIVDRV^RP51 = test: microbe, parasite or virus in culture; assay type: cell-based, HIV-1; settings: for fold change of IC50 relative to HIV-1NL4-3: HIVDRV^RP51 vs wild type
wild-type HIV-1NL4-3 = test: Antiviral p24 assay in MT-4 cells, wild-type HIV-1NL4-3; assay type: cell-based
HIV-1 protease = HIV-1 protease (Human immunodeficiency virus type 1 group M subtype B, UniProt P04585); test: HIV-1 protease inhibitory activity, assay protocol of Toth and Marshall; assay type: biochemical; settings: as printed in text or footnote
HIVDRV^RP20 = test: microbe, parasite or virus in culture; assay type: cell-based, HIV-1; settings: for fold change of IC50 relative to HIV-1NL4-3: HIVDRV^RP20 vs wild type
HIVDRV^RP30 = test: microbe, parasite or virus in culture; assay type: cell-based, HIV-1; settings: for fold change of IC50 relative to HIV-1NL4-3: HIVDRV^RP30 vs wild type
HIVAPV-5 μM = test: microbe, parasite or virus in culture; assay type: cell-based, HIV-1
HIVIDV-5 μM = test: microbe, parasite or virus in culture; assay type: cell-based, HIV-1
HIVNFV-5 μM = test: microbe, parasite or virus in culture; assay type: cell-based, HIV-1
HIVLPV-5 μM = test: microbe, parasite or virus in culture; assay type: cell-based, HIV-1
HIVTPV-15 μM = test: microbe, parasite or virus in culture; assay type: cell-based, HIV-1
HIVATV-5 μM = test: microbe, parasite or virus in culture; assay type: cell-based, HIV-1
HIVSQV-5 μM = test: microbe, parasite or virus in culture; assay type: cell-based, HIV-1
[1] = brain concentration 32.6 nM at 360 min; ref [23]; cited from earlier work
[2] = target: dimerization of HIV-1 protease subunits (Human immunodeficiency virus type 1 group M subtype B, UniProt P12497); test: FRET-based HIV-1 expression assay of protease dimerization in COS-7 cells; assay type: cell-based
HIVLAI = test: Antiviral activity in MT-2 human T-lymphoid cells exposed to HIVLAI; assay type: cell-based, HIV-1; settings: MT-2/HIVLAI
[3] = read-out: IC50 ± SD, MT-4 cells, HIVDRV^RP51, p24 assay
[4] = read-out: IC50 ± SD, MT-4 cells, HIVNL4-3 WT, p24 assay
[5] = read-out: IC50 ± SD, MT-4 cells, HIVDRV^RP20, p24 assay
[6] = read-out: IC50 ± SD, MT-4 cells, HIVDRV^RP30, p24 assay
[7] = read-out: Mean IC50 ± SD, MT-4 cells, HIVATV-5 μM, p24 assay
[8] = Human immunodeficiency virus 1, MT4, read-out: IC50 ± SD
[9] = Human immunodeficiency virus 1, MT4, read-out: Mean IC50 ± SD

SMILES | fold change of IC50 relative to HIV-1NL4-3 (HIVDRV^RP51) [fold] | IC50 (HIVDRV^RP51; [3]) [nM] | IC50 (wild-type HIV-1NL4-3; [4]) [nM] | Ki (HIV-1 protease) [nM] | fold change of IC50 relative to HIV-1NL4-3 (HIVDRV^RP20) [fold] | IC50 (HIVDRV^RP20; [5]) [nM] | fold change of IC50 relative to HIV-1NL4-3 (HIVDRV^RP30) [fold] | IC50 (HIVDRV^RP30; [6]) [nM] | fold-change of IC50 vs HIVNL4-3 WT (HIVAPV-5 μM; HIVAPV-5 μM) [fold] | fold-change of IC50 vs HIVNL4-3 WT (HIVIDV-5 μM; HIVIDV-5 μM) [fold] | fold-change of IC50 vs HIVNL4-3 WT (HIVNFV-5 μM; HIVNFV-5 μM) [fold] | fold-change of IC50 vs HIVNL4-3 WT (HIVLPV-5 μM; HIVLPV-5 μM) [fold] | fold-change of IC50 vs HIVNL4-3 WT (HIVTPV-15 μM; HIVTPV-15 μM) [fold] | fold-change of IC50 vs HIVNL4-3 WT (HIVATV-5 μM; HIVATV-5 μM) [fold] | IC50 (HIVATV-5 μM; [7]) [nM] | fold-change of IC50 vs HIVNL4-3 WT (HIVSQV-5 μM; HIVSQV-5 μM) [fold] | also measured
CC(C)CN(C[C@@H](O)[C@H](Cc1cc(F)cc(F)c1)NC(=O)O[C@H]1C2CO[C@H]3OC[C@@H]1C3C2)S(=O)(=O)c1ccc(N)cc1 (stereo partly drawn) [Inhibitor 4, (3S,7 aS,8S)-Hexahydro-4H-3,5-methanofuro[2,3-b]pyran-8-yl((2S,3R)-4-((4-amino-N-isobutylphenyl)sulfonamido)-1-(3,5-difluorophenyl)-3-hydroxybutan-2-yl)carbamate] | 82 | 486 ± 52 | 5.9 ± 0.4 | 0.004 | 4 | 24 ± 9 | 1.9 | 11 ± 13 | – | – | – | – | – | – | – | – | –
COC(=O)N[C@H](C(=O)N[C@@H](Cc1ccccc1)[C@@H](O)CN(Cc1ccc(-c2ccccn2)cc1)NC(=O)[C@@H](NC(=O)OC)C(C)(C)C)C(C)(C)C [ATV] | > 192 | > 1000 | 5.2 ± 0.3 | – | > 192 | > 1000 | > 192 | > 1000 | 0.5 | 11 | 3.7 | 7 | > 192 | > 192 | > 1000 | 105 | IC50 (HIVAPV-5 μM; read-out: Mean IC50 ± SD, MT-4 cells, HIVAPV-5 μM, p24 assay): 2.4 ± 0.7 nM; IC50 (HIVIDV-5 μM; read-out: Mean IC50 ± SD, MT-4 cells, HIVIDV-5 μM, p24 assay): 59 ± 13 nM; IC50 (HIVNFV-5 μM; read-out: Mean IC50 ± SD, MT-4 cells, HIVNFV-5 μM, p24 assay): 19 ± 1 nM; IC50 (HIVLPV-5 μM; read-out: Mean IC50 ± SD, MT-4 cells, HIVLPV-5 μM, p24 assay): 36 ± 9 nM; IC50 (HIVTPV-15 μM; read-out: Mean IC50 ± SD, MT-4 cells, HIVTPV-15 μM, p24 assay): > 1000 nM; IC50 (HIVSQV-5 μM; read-out: Mean IC50 ± SD, MT-4 cells, HIVSQV-5 μM, p24 assay): 548 ± 177 nM
CC(C)CN(C[C@@H](O)[C@H](Cc1ccccc1)NC(=O)O[C@H]1CO[C@H]2OCC[C@H]21)S(=O)(=O)c1ccc(N)cc1 [DRV, darunavir] | – | – | – | – | – | – | – | – | – | – | – | – | – | – | – | – | IC50 (HIVDRV^RP51; [8]): 4670 ± 1260 nM; IC50 (HIVAPV-5 μM; [9]): 43 ± 22 nM; IC50 (HIVIDV-5 μM; [9]): 42 ± 1 nM; IC50 (HIVNFV-5 μM; [9]): 6.1 ± 0.8 nM; IC50 (wild-type HIV-1NL4-3; [8]): 3.7 ± 0.7 nM; IC50 (HIVLPV-5 μM; [9]): 275 ± 64 nM; IC50 (HIVDRV^RP20; [8]): 60 ± 6 nM; IC50 (HIVTPV-15 μM; [9]): 41 ± 3 nM; IC50 (HIVATV-5 μM; [9]): 26 ± 1 nM; IC50 (HIVSQV-5 μM; [9]): 22 ± 6 nM; IC50 (HIVDRV^RP30; [8]): 134 ± 43 nM
CC(C)CN(C[C@@H](O)[C@H](Cc1cc(F)cc(F)c1)NC(=O)O[C@H]1C2CO[C@H]3OC[C@@H]1C3C2)S(=O)(=O)c1ccc2nc(NC3CC3)sc2c1 (stereo partly drawn) [Inhibitor 5, (3S,7 aS,8S)-Hexahydro-4H-3,5-methanofuro[2,3-b]pyran-8-yl((2S,3R)-4-((2-(cyclopropylamino)-N-isobutylbenzo[d]thiazole)-6-sulfonamido)-1-(3,5-difluorophenyl)-3-hydroxybutan-2-yl)carbamate] | 175 | 2.8 ± 0.2 | 0.016 ± 0.017 | 0.014 | 0.1 | 0.0016 ± 0.002 | 1 | 0.015 ± 0.015 | 0.0006 | 0.02 | 0.04 | 0.0002 | 0.02 | 1.3 | 0.02 ± 0.01 | 0.01 | brain drug level relative to its IC50 value [1]: ~1880 fold; concentration at which dimerization of protease subunits is blocked [2]: 0.1 nM; fold potency enhancement of antiviral IC50 over DRV (HIVLAI; vs DRV): more than 150 fold; fold improvement of antiviral IC50 over compound 4 (HIVLAI; vs compound 4): 100 fold; fold more potent than inhibitor 3 (antiviral) (HIVLAI; vs inhibitor 3): over 15 fold
